Source: PMC7112222, “Investigation of pyrimidine nucleoside analogues as chemical probes to assess compound effects on the proliferation of Trypanosoma cruzi intracellular parasites” (PLoS Neglected Tropical Diseases, 2020)

Legend:
3T3 cells = test: Image-based assay, effect on 3T3 host cells; assay type: cell-based
Description: Parasites and host cells were maintained as outlined previously. Briefly, host 3T3 fibroblasts (ATCC, CCL-92) were grown in RPMI medium (Thermo Fisher Scientific, USA) with no phenol red, supplemented with 10% FBS (Thermo Fisher Scientific, USA) and incubated at 37°C in 5% CO2. Host cells were harvested at 70% confluency and were split every 2–3 days in 175 cm^2 flasks. 3T3 cells were cultured up to passage 7 as contact inhibition was reduced or lost at higher passages. Prior to infection with T. cruzi trypomastigotes, host cells were seeded at 1.2 x 10^6 cells in 75 cm^2 or 4 x 10^5 cells in 25 cm^2 flasks and grown for 24 hours before parasite addition. Parasites were added at a multiplicity of infection (MOI) of 10:1 and incubated for 24 hours before non-infected trypomastigotes were washed off the host cell bed with PBS supplemented with Ca^2+ and Mg^2+ (Thermo Fisher Scientific, USA). Incubation was continued for a further 3 days, until tissue culture trypomastigotes began to egress from host cells. Egressed parasites were used for assays or to continue the infective life cycle in vitro.
[…] Briefly, 14-point serial dilutions of the compounds in 100% DMSO were prepared and then further diluted in sterile water at a ratio of 1:21 compound: water. Five microliters of the diluted compounds were added to wells of T. cruzi infected host cells, using a MiniTrak compound handling device (Perkin Elmer, USA) with final concentrations in the plate ranging from 183 μM to 4.6 x 10^−4 μM. All experiments were performed with two separate biological replicates.
Image analysis was performed with a script developed in Columbus software (CHEMICAL LABEL INCORPORATION SCRIPT). Control wells were also imaged at an increased, 60x magnification to show the distribution of staining and the structure of the parasites within host cells. Eight background control wells consisted of infected host cells, fixed and exposed to Hoechst and the click chemistry cocktail, without the addition of the chemical probe EdU. […] The percentage activity of compounds against parasite number / infected cells (identified with Hoechst) was calculated against a positive control of 12 μM of NFX for the parasite and 30 μM of PURO the host cells; and a negative control of 0.47% DMSO. All images taken were not modified and were taken on an Opera, confocal image-based reader.

[1] = test system: T. cruzi intracellular amastigotes; test: Image-based assay of the number of T. cruzi infected cells (intracellular amastigotes in 3T3 host cells); assay type: cell-based, Trypanosoma cruzi; conditions: 2 and 4 hour exposures; 73 μM
L. donovani = test system: L. donovani; design: method as in PMID 27021313; conditions: 72 hours incubation; cited from earlier work
HEK293 cells = conditions: read-out: IC50 value, cytotoxicity against HEK293 cells; 72 hours exposure; cited from earlier work

Compound: C#Cc1cn([C@H]2C[C@H](O)[C@@H](CO)O2)c(=O)[nH]c1=O [EdU, 5-ethynyl-2′-deoxy-uridine]
- activity against host cells after short exposure (3T3 cells; 2 and 4 hour exposures, 73 μM): less than 20%
- Host cell 3T3 IC50 value 48 h (3T3 cells; 48 h, highest test concentration 183 μM): NA (NA = ≤50% activity at the highest concentration tested and an IC50 value could not be determined)
- activity against 3T3 cells in the image-based assay (3T3 cells; 48 hours): < 20%
- activity against T. cruzi amastigote growth after short exposure [1]: less than 20%
- toxicity toward L. donovani (L. donovani): lack of toxicity
- IC50 (HEK293 cells): 60 ± 43 nM
